Among the data in PubChem BioAssay (NCI) are TGI values, retold here.

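Values below derive from 48-hour exposures of cells grown in 96-well plates, with endpoints linearly interpolated between the two concentrations bracketing the appropriate inhibition level. TGI: total growth inhibition.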 Where only a bound is given, the exact number is not on record here.

Among the test systems are DMS 273 small cell lung; LXFL 529 NSCLC; SNB-78 CNS; DLD-1 colon; XF 498 CNS; M19-MEL melanoma; HOP-18 NSCLC; P388/ADR leukemia; P388 leukemia; SN12K1 renal; RXF-631 renal.
What all share (experiment): NCI tumour cell line growth inhibition, 48 h

Consider `O=C1C=C(N2CC2)C(=O)C=C1N1CC1`, for which the TGI worked out at 0.52 µM in the assay with DMS 273 small cell lung; 0.527 µM in the assay on LXFL 529 NSCLC; 1.8 µM in the assay with SNB-78 CNS; 1.5 µM in the assay with DLD-1 colon; 0.538 µM in the assay with XF 498 CNS.
As to `NC(Cc1c[nH]c2ccccc12)C(=O)O` (stereo not given), the TGI in the assay with M19-MEL melanoma was > 300 µM; in the assay with HOP-18 NSCLC, 196 µM; in the assay with P388/ADR leukemia, > 300 µM; in the assay with DMS 273 small cell lung, > 300 µM; with P388 leukemia, > 300 µM; in the assay on SN12K1 renal it was > 300 µM. Moreover, the TGI in the assay on SNB-78 CNS and in the assay on DLD-1 colon was > 300 µM in each case.
Consider `Nc1nc(N)c2nc(-c3ccco3)cnc2n1`, for which the TGI in the assay with M19-MEL melanoma, with RXF-631 renal, in the assay with HOP-18 NSCLC, in the assay with LXFL 529 NSCLC, in the assay on SNB-78 CNS and with DLD-1 colon was > 100 µM each time. In addition, the TGI with XF 498 CNS was > 100 µM.
